Laboratory results reported in ChEMBL document CHEMBL1201861, “Genomics of Drug Sensitity in Cancer screening data, Wellcome Trust Sanger Institute”.

Tests used:
SW1783 = experiment: cells; type: functional, cell-based; conditions: Homo sapiens
Description: SANGER: Inhibition of human SW1783 cell growth in a cell viability assay.

NCI-H2452 = experiment: cells; type: functional, cell-based; conditions: Homo sapiens;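 further: growth inhibition of NCI-H2452 cells, read out with a cell viability assay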
Description: SANGER: Inhibition of human NCI-H2452 cell growth in a cell viability assay.

CAL-85-1 = experiment: cells; type: functional, cell-based; conditions: Homo sapiens;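 further: growth inhibition of human CAL-85-1 cells, read out with a cell viability assay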
Description: SANGER: Inhibition of human CAL-85-1 cell growth in a cell viability assay.

ACHN = experiment: cells; type: functional, cell-based; conditions: Homo sapiens;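 further: cell viability read-out used to gauge how strongly growth of human ACHN cells is suppressed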
Description: SANGER: Inhibition of human ACHN cell growth in a cell viability assay.

GMS-10 = experiment: cells; type: functional, cell-based; conditions: Homo sapiens;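 further: growth inhibition of GMS-10 cells, read out as cell viability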
Description: SANGER: Inhibition of human GMS-10 cell growth in a cell viability assay.

COR-L105 = experiment: cells; type: functional, cell-based; conditions: Homo sapiens
Description: SANGER: Inhibition of human COR-L105 cell growth in a cell viability assay.

CAL-62 = experiment: cells; type: functional, cell-based; conditions: Homo sapiens;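 further: growth inhibition of CAL-62 cells, read out with a cell viability assay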
Description: SANGER: Inhibition of human CAL-62 cell growth in a cell viability assay.

Daoy = experiment: cells; type: functional, cell-based; conditions: Homo sapiens;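 further: daoy cell growth inhibition, read out as cell viability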
Description: SANGER: Inhibition of human Daoy cell growth in a cell viability assay.

CAL-51 = experiment: cells; type: functional, cell-based; conditions: Homo sapiens;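 further: human CAL-51 cell line, growth inhibition read out via a cell viability assay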
Description: SANGER: Inhibition of human CAL-51 cell growth in a cell viability assay.

A673 = experiment: cells; type: functional, cell-based; conditions: Homo sapiens;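 further: growth inhibition of human A673 cells, read out through a cell viability assay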
Description: SANGER: Inhibition of human A673 cell growth in a cell viability assay.

ASPC1 = experiment: cells; type: functional, cell-based; conditions: Homo sapiens;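 further: growth inhibition of AsPC-1 cells, read out with a cell viability assay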
Description: SANGER: Inhibition of human AsPC-1 cell growth in a cell viability assay.

YAPC = experiment: cells; type: functional, cell-based; conditions: Homo sapiens;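 further: growth inhibition of YAPC cells, measured with a cell viability assay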
Description: SANGER: Inhibition of human YAPC cell growth in a cell viability assay.

SW1573 = experiment: cells; type: functional, cell-based; conditions: Homo sapiens;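 further: growth inhibition of SW1573 cells, read out with a cell viability assay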
Description: SANGER: Inhibition of human SW1573 cell growth in a cell viability assay.

CAPAN-1 = experiment: cells; type: functional, cell-based; conditions: Homo sapiens;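 further: growth suppression of CAPAN-1 cells, read out by a cell viability assay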
Description: SANGER: Inhibition of human CAPAN-1 cell growth in a cell viability assay.

NCI-H1755 = experiment: cells; type: functional, cell-based; conditions: Homo sapiens;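 further: cell viability readout used to measure growth inhibition of NCI-H1755 cells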
Description: SANGER: Inhibition of human NCI-H1755 cell growth in a cell viability assay.

HLE = experiment: cells; type: functional, cell-based; conditions: Homo sapiens;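 further: growth inhibition of human HLE cells, read out by a cell viability assay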
Description: SANGER: Inhibition of human HLE cell growth in a cell viability assay.

MHH-ES-1 = experiment: cells; type: functional, cell-based; conditions: Homo sapiens
Description: SANGER: Inhibition of human MHH-ES-1 cell growth in a cell viability assay.

G-402 = experiment: cells; type: functional, cell-based; conditions: Homo sapiens
Description: SANGER: Inhibition of human G-402 cell growth in a cell viability assay.

NCI-H2170 = experiment: cells; type: functional, cell-based; conditions: Homo sapiens;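 further: cell viability assay measuring growth inhibition of human NCI-H2170 cancer cells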
Description: SANGER: Inhibition of human NCI-H2170 cell growth in a cell viability assay.

NCI-H650 = experiment: cells; type: functional, cell-based; conditions: Homo sapiens;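 further: growth inhibition of NCI-H650 cells, read out by a viability assay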
Description: SANGER: Inhibition of human NCI-H650 cell growth in a cell viability assay.

HT1197 = experiment: cells; type: functional, cell-based, HT-1197; conditions: Homo sapiens
Description: SANGER: Inhibition of human HT-1197 cell growth in a cell viability assay.

LCLC-103H cell line = experiment: cells; type: functional, cell-based; conditions: Homo sapiens
Description: SANGER: Inhibition of human LCLC-103H cell growth in a cell viability assay.

U2OS = experiment: cells; type: functional, cell-based, U-2-OS; conditions: Homo sapiens;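 further: growth inhibition of human U-2-OS cells, determined with a cell viability assay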
Description: SANGER: Inhibition of human U-2-OS cell growth in a cell viability assay.

M14 = experiment: cells; type: functional, cell-based; conditions: Homo sapiens;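 further: growth inhibition of M14 cells, read out with a cell viability assay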
Description: SANGER: Inhibition of human M14 cell growth in a cell viability assay.

D-392MG = experiment: cells; type: functional, cell-based; conditions: Homo sapiens
MFE-280 = experiment: cells; type: functional, cell-based; conditions: Homo sapiens;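 further: growth inhibition of MFE-280 cells, determined with a cell viability readout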
Description: SANGER: Inhibition of human MFE-280 cell growth in a cell viability assay.

BFTC-905 = experiment: cells; type: functional, cell-based; conditions: Homo sapiens
Description: SANGER: Inhibition of human BFTC-905 cell growth in a cell viability assay.

T47D = experiment: cells; type: functional, cell-based; conditions: Homo sapiens;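 further: growth inhibition of human T47D cells, measured with a cell viability assay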
Description: SANGER: Inhibition of human T47D cell growth in a cell viability assay.

5637 = experiment: cells; type: functional, cell-based; conditions: Homo sapiens
Description: SANGER: Inhibition of human 5637 cell growth in a cell viability assay.

ChaGo-K-1 = experiment: cells; type: functional, cell-based; conditions: Homo sapiens;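 further: growth inhibition of ChaGo-K-1 cells, read out with a cell viability assay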
Description: SANGER: Inhibition of human ChaGo-K-1 cell growth in a cell viability assay.

NB7 = experiment: cells; type: functional, cell-based, Homo sapiens; conditions: Homo sapiens, NB7;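 further: growth inhibition of NB7 cells, read out with a cell viability assay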
Description: SANGER: Inhibition of human NB7 cell growth in a cell viability assay.

NCI-H1437 = experiment: cells; type: functional, cell-based; conditions: Homo sapiens;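 further: growth inhibition of human NCI-H1437 cells, read out by a cell viability assay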
Description: SANGER: Inhibition of human NCI-H1437 cell growth in a cell viability assay.

NCI-H2122 = experiment: cells; type: functional, cell-based; conditions: Homo sapiens;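 further: growth inhibition of the cells, read out with a cell viability assay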
Description: SANGER: Inhibition of human NCI-H2122 cell growth in a cell viability assay.

BXPC-3 = experiment: cells; type: functional, cell-based; conditions: Homo sapiens;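 further: growth inhibition of human BxPC-3 cells, read out by a cell viability assay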
Description: SANGER: Inhibition of human BxPC-3 cell growth in a cell viability assay.

HCC1806 = experiment: cells; type: functional, cell-based; conditions: Homo sapiens;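 further: growth inhibition of the cancer cell line, determined with a cell viability assay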
Description: SANGER: Inhibition of human HCC1806 cell growth in a cell viability assay.

KYSE-450 = experiment: cells; type: functional, cell-based; conditions: Homo sapiens;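 further: cell growth inhibition measured by a viability assay in human KYSE-450 cells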
Description: SANGER: Inhibition of human KYSE-450 cell growth in a cell viability assay.

GP5d = experiment: cells; type: functional, cell-based; conditions: Homo sapiens;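 further: growth inhibition of human GP5d cells, read out with a cell viability assay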
Description: SANGER: Inhibition of human GP5d cell growth in a cell viability assay.

NCI-H2052 = experiment: cells; type: functional, cell-based; conditions: Homo sapiens;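 further: growth inhibition of NCI-H2052 cells, read out with a cell viability assay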
Description: SANGER: Inhibition of human NCI-H2052 cell growth in a cell viability assay.

ESS-1 = experiment: cells; type: functional, cell-based; conditions: Homo sapiens;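 further: growth inhibition of human ESS-1 cells, read out by a cell viability assay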
Description: SANGER: Inhibition of human ESS-1 cell growth in a cell viability assay.

RMG-I = experiment: cells; type: functional, cell-based; conditions: Homo sapiens;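 further: growth inhibition of human RMG-I cells, read out with a cell viability assay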
Description: SANGER: Inhibition of human RMG-I cell growth in a cell viability assay.

SW756 = experiment: cells; type: functional, cell-based; conditions: Homo sapiens;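 further: growth inhibition of human SW756 cells, read out with a cell viability assay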
Description: SANGER: Inhibition of human SW756 cell growth in a cell viability assay.

SU-DHL-1 = experiment: SANGER: Inhibition of human SU-DHL-1 cell growth in a cell viability assay.; type: functional, cell-based; conditions: Homo sapiens, SU-DHL-1
COR-L279 = experiment: SANGER: Inhibition of human COR-L279 cell growth in a cell viability assay.; type: functional, cell-based; conditions: Homo sapiens, COR-L279

Measured: IC50

O=C1NC(=O)c2c1c(-c1ccccc1Cl)cc1[nH]c3ccc(O)cc3c21
1.62 µM: BFTC-905
0.542 µM: ACHN
1.69 µM: M14
1.27 µM: U2OS
not listed: RMG-I | SW756 | SU-DHL-1 | COR-L279
> 2 µM: all other assays above

O=C(NCCCNc1nc(Nc2cccc(NC(=O)N3CCCC3)c2)ncc1I)c1cccs1 [BX-795]
3.54 µM: SW1783
4.83 µM: NCI-H2452
3.4 µM: NCI-H650
1.22 µM: CAL-51
2.54 µM: NCI-H1755
2.73 µM: MHH-ES-1
1.59 µM: U2OS
2.57 µM: MFE-280
4.07 µM: LCLC-103H cell line
1.47 µM: G-402
1.08 µM: BFTC-905
4.12 µM: GMS-10
2.77 µM: NCI-H1437
not listed: SU-DHL-1 | COR-L279
> 5 µM: all other assays above

CO[C@@H]1[C@H](N(C)C(=O)c2ccccc2)C[C@H]2O[C@]1(C)n1c3ccccc3c3c4c(c5c6ccccc6n2c5c31)C(=O)NC4 [MIDOSTAURIN]
0.331 µM: ACHN | D-392MG
0.323 µM: NCI-H2122
0.0627 µM: NCI-H1755
> 0.512 µM: SW1783 | CAL-85-1 | SU-DHL-1 | COR-L279 | T47D | 5637 | NCI-H1437 | GP5d | NCI-H2052

NC1(c2ccc(-c3nc4ccn5c(=O)[nH]nc5c4cc3-c3ccccc3)cc2)CCC1 [MK-2206]
3.71 µM: G-402
0.965 µM: MFE-280
0.221 µM: ASPC1
0.282 µM: T47D
2.16 µM: RMG-I
0.824 µM: NB7
1.8 µM: COR-L105
not listed: ACHN | SU-DHL-1 | COR-L279
> 4 µM: all other assays above

CN(C)CCOc1ccc(-c2nc(-c3ccncc3)c(-c3ccc4c(c3)CC/C4=N\O)[nH]2)cc1 [SB590885]
0.0808 µM: M14
not listed: ACHN | SU-DHL-1 | COR-L279
> 5 µM: all other assays above
